Measurements taken from US10335409B2 (priority 2012, dated 2019).
pEC50: −log10 of the molar value. Where two headings read alike, the source gives them in different places.

Experiments:
Type in all cases: cell-based, hepatitis C virus
[1] = system: genotype 1a (H77) stable HCV replicon in Huh-7-derived cells; experiment: Stable subgenomic HCV replicon EC50, genotype 1a (Renilla luciferase); settings: Hepatitis C virus, stable replicon genotype 1a, 72 h, read-out: EC50 1A RLUC
How it was run: (§1)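 Compounds, three-fold diluted, were applied to Huh-7-derived cells harbouring luciferase replicons (genotype 1a H77, 1b Con1, 2a JFH-1, 4a ED43, with strain-specific adaptive mutations). Seventy-two hours later, intracellular replication was gauged by Renilla luciferase activity and EC50 derived by regression.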

[2] = system: genotype 1b (Con1) stable HCV replicon in Huh-7-derived cells; experiment: Stable subgenomic HCV replicon EC50, genotype 1b (Renilla luciferase); settings: Hepatitis C virus, stable replicon genotype 1b, 72 h, read-out: EC50 1B RLUC
How it was run: as §1

[3] = system: genotype 2a (JFH-1) stable HCV replicon in Huh-7-derived cells; experiment: Stable subgenomic HCV replicon EC50, genotype 2a (Renilla luciferase); settings: Hepatitis C virus, stable replicon genotype 2a, 72 h, read-out: EC50 2A RLUC
How it was run: as §1

[4] = system: genotype 3a (S52) stable HCV replicon in Huh-7-derived cells; experiment: Stable subgenomic HCV replicon EC50, genotype 3a (Renilla luciferase); settings: Hepatitis C virus, 72 h, read-out: EC50 3A RLUC
[5] = system: genotype 4a (ED43) stable HCV replicon in Huh-7-derived cells; experiment: Stable subgenomic HCV replicon EC50, genotype 4a (Renilla luciferase); settings: Hepatitis C virus, 72 h, read-out: EC50 4A RLUC
How it was run: as §1

[6] = system: genotype 3a (S52) wild type transient HCV replicon in Huh-7-derived cells; experiment: Transient-transfected HCV replicon EC50, genotype 3a wild type; settings: Hepatitis C virus, 72 h, read-out: EC50 3A WT
[7] = system: genotype 1a (H77) wild type transient HCV replicon in Huh-7-derived cells; experiment: Transient-transfected HCV replicon EC50, genotype 1a wild type; settings: Hepatitis C virus, 72 h, read-out: EC50 1A WT
[8] = system: genotype 1a NS3/4a protease inhibitor resistant variant R155K transient HCV replicon in Huh-7-derived cells; experiment: Transient-transfected HCV replicon EC50, genotype 1a R155K; settings: Hepatitis C virus, 72 h, read-out: EC50 1A R155K, transient-transfected replicon genotype 1a R155K resistant variant, 72 h
[9] = system: genotype 1b (Con1) wild type transient HCV replicon in Huh-7-derived cells; experiment: Transient-transfected HCV replicon EC50, genotype 1b wild type; settings: Hepatitis C virus, 72 h, read-out: EC50 1B WT
[10] = system: genotype 1b NS3/4a protease inhibitor resistant variant D168A transient HCV replicon in Huh-7-derived cells; experiment: Transient-transfected HCV replicon EC50, genotype 1b D168A; settings: Hepatitis C virus, 72 h, read-out: EC50 1B D168A, transient-transfected replicon genotype 1b D168A resistant variant, 72 h
[11] = transient-transfected replicon genotype 3a wild type
[12] = transient-transfected replicon genotype 1a wild type
[13] = transient-transfected replicon genotype 1b wild type

SMILES	pEC50 [1]	pEC50 [2]	pEC50 [3]	pEC50 [4]	pEC50 [5]	pEC50 [6]	pEC50 [7]	pEC50 [8]	pEC50 [9]	pEC50 [10]	pEC50 [6, 11]	pEC50 [7, 12]	pEC50 [9, 13]
COc1ccc2nc3c(nc2c1)O[C@H]1CN(C(=O)[C@H](C(C)(C)C)NC(=O)O[C@@H]2C[C@@H]4C[C@@H]4[C@H]2CCCCC3)[C@H](C(=O)N[C@]2(C(=O)NS(=O)(=O)C3(C)CC3)C[C@H]2CC(F)F)[C@@H]1C [Example 58, (1aS,2aR,6S,9S,10S,11R,23aR,23bS)-6-tert-butyl-N-[(1R,2S)-2-(2,2-difluoroethyl)-1-{[(1-methylcyclopropyl)sulfonyl]carbamoyl}cyclopropyl]-15-methoxy-10-methyl-4,7-dioxo-1a,2,2a,4,5,6,7,10,11,19,20,21,22,23,23a,23b-hexadecahydro-1H,9H-8,11-methanocyclopropa[4′,5′]cyclopenta[1′,2′:18,19][1,10,3,6]dioxadiazacyclononadecino[11,12-b]quinoxaline-9-carboxamide]	7.92	8.01	7.92	6.87	7.92	7.42	7.92	7.74	7.85	7.64			
CC[C@@H]1[C@@H]2CN(C(=O)[C@H](C(C)(C)C)NC(=O)O[C@@H]3C[C@@H]4C[C@@H]4[C@H]3CCCCC(F)(F)c3nc4ccc(OC)cc4nc3O2)[C@@H]1C(=O)N[C@]1(C(=O)NS(=O)(=O)C2(C)CC2)C[C@H]1C(F)F [Example 61, (1aS,2aR,6S,9S,10S,11R,23aR,23bS)-6-tert-butyl-N-[(1R,2R)-2-(difluoromethyl)-1-{[(1-methylcyclopropyl)sulfonyl]carbamoyl}cyclopropyl]-10-ethyl-19,19-difluoro-15-methoxy-4,7-dioxo-1a,2,2a,4,5,6,7,10,11,19,20,21,22,23,23a,23b-hexadecahydro-1H,9H-8,11-methanocyclopropa[4′,5′]cyclopenta[1′,2′:18,19][1,10,3,6]dioxadiazacyclononadecino[11,12-b]quinoxaline-9-carboxamide]	7.89	8.00	8.06	7.55	7.96			8.00		8.17	7.89	7.92	8.03
CC[C@@H]1[C@@H]2CN(C(=O)[C@H](C(C)(C)C)NC(=O)O[C@@]3(C)C[C@@H]3CCCCC(F)(F)c3nc4ccc(OC)cc4nc3O2)[C@@H]1C(=O)N[C@]1(C(=O)NS(=O)(=O)C2(C)CC2)C[C@H]1C(F)F [Example 64, (1aS,5S,8S,9S,10R,22aS)-5-tert-butyl-N-[(1R,2R)-2-(difluoromethyl)-1-{[(1-methylcyclopropyl)sulfonyl]carbamoyl}cyclopropyl]-9-ethyl-18,18-difluoro-14-methoxy-1a-methyl-3,6-dioxo-1,1a,3,4,5,6,9,10,18,19,20,21,22,22a-tetradecahydro-8H-7,10-methanocyclopropa[18,19][1,10,3,6]dioxadiazacyclononadecino[11,12-b]quinoxaline-8-carboxamide]	7.00	7.42	7.32	6.17	7.47			7.30		6.98	6.59	7.43	7.77
CCC[C@@H]1[C@@H]2CN(C(=O)[C@H](C(C)(C)C)NC(=O)O[C@@H]3C[C@H]3CCCCC(F)(F)c3nc4ccc(OC)cc4nc3O2)[C@@H]1C(=O)N[C@]1(C(=O)NS(=O)(=O)C2(C)CC2)C[C@H]1C(F)F [Example 65, (1aR,5S,8S,9S,10R,22aR)-5-tert-butyl-N-[(1R,2R)-2-(difluoromethyl)-1-{[(1-methylcyclopropyl)sulfonyl]carbamoyl}cyclopropyl]-18,18-difluoro-14-methoxy-3,6-dioxo-9-propyl-1,1a,3,4,5,6,9,10,18,19,20,21,22,22a-tetradecahydro-8H-7,10-methanocyclopropa[18,19][1,10,3,6]dioxadiazacyclononadecino[11,12-b]quinoxaline-8-carboxamide]	7.92	8.08	8.11	7.52	8.09	7.77	8.03	8.09	8.19	7.96			
CC[C@@H]1[C@@H]2CN(C(=O)[C@H](C(C)(C)C)NC(=O)O[C@@H]3C[C@H]3CCCCCc3nc4ccc(OC)cc4nc3O2)[C@@H]1C(=O)N[C@]1(C(=O)NS(=O)(=O)C2(C)CC2)C[C@H]1CC(F)F [Example 67, (1aR,5S,8S,9S,10R,22aR)-5-tert-butyl-N-[(1R,2S)-2-(2,2-difluoroethyl)-1-{[(1-methylcyclopropyl)sulfonyl]carbamoyl}cyclopropyl]-9-ethyl-14-methoxy-3,6-dioxo-1,1a,3,4,5,6,9,10,18,19,20,21,22,22a-tetradecahydro-8H-7,10-methanocyclopropa[18,19][1,10,3,6]dioxadiazacyclononadecino[11,12-b]quinoxaline-8-carboxamide]	7.96	7.92	7.62	6.42	7.92			7.38		7.07	6.97	7.85	8.00
COc1ccc2nc3c(nc2c1)O[C@H]1CN(C(=O)[C@H](C(C)(C)C)NC(=O)O[C@H]2CC4CC(C4)[C@@H]2CCCCC3)[C@H](C(=O)N[C@]2(C(=O)NS(=O)(=O)C3CC3)C[C@H]2C(F)F)[C@@H]1C [Example 72, (4aS,8S,11S,12S,13R,25aS)-8-tert-butyl-N-[(1R,2R)-1-[(cyclopropylsulfonyl)carbamoyl]-2-(difluoromethyl)cyclopropyl]-17-methoxy-12-methyl-6,9-dioxo-2,3,4,4a,6,7,8,9,12,13,21,22,23,24,25,25a-hexadecahydro-1H,11H-1,3:10,13-dimethanoquinoxalino[2,3-k][1,10,3,6]benzodioxadiazacyclononadecine-11-carboxamide]	6.44	6.52	6.13	5.74	6.42			6.64		6.16	6.19	6.22	6.78
CC[C@@H]1[C@@H]2CN(C(=O)[C@H](C(C)(C)C)NC(=O)O[C@@H]3C[C@H]3CCCCCc3nc4ccc(OC)cc4nc3O2)[C@@H]1C(=O)N[C@]1(C(=O)NS(=O)(=O)C2(C)CC2)C[C@H]1C [Example 73, (1aR,5S,8S,9S,10R,22aR)-5-tert-butyl-9-ethyl-14-methoxy-N-[(1R,2R)-2-methyl-1-{[(1-methylcyclopropyl)sulfonyl]carbamoyl}cyclopropyl]-3,6-dioxo-1,1a,3,4,5,6,9,10,18,19,20,21,22,22a-tetradecahydro-8H-7,10-methanocyclopropa[18,19][1,10,3,6]dioxadiazacyclononadecino[11,12-b]quinoxaline-8-carboxamide]	8.10	8.12	7.66	6.75	8.14			7.60		7.12	7.35	8.06	8.21
CC[C@@H]1[C@@H]2CN(C(=O)[C@H](C(C)(C)C)NC(=O)O[C@@H]3C[C@H]3CCCCCc3nc4ccc(OC)cc4nc3O2)[C@@H]1C(=O)N[C@]1(C(=O)NS(=O)(=O)C2(F)CC2)C[C@H]1C(F)F [Example 74, (1aR,5S,8S,9S,10R,22aR)-5-tert-butyl-N-[(1R,2R)-2-(difluoromethyl)-1-{[(1-fluorocyclopropyl)sulfonyl]carbamoyl}cyclopropyl]-9-ethyl-14-methoxy-3,6-dioxo-1,1a,3,4,5,6,9,10,18,19,20,21,22,22a-tetradecahydro-8H-7,10-methanocyclopropa[18,19][1,10,3,6]dioxadiazacyclononadecino[11,12-b]quinoxaline-8-carboxamide]	8.10	8.30	7.74	6.43	8.08			7.36		7.25	6.86	8.06	8.68
